Structures are written as SMILES. Several values for one entry are separate records, joined by “and”; a condition that tells them apart may be missing. Equal values may be shown once.

One may read the IC50 as the point on the concentration scale where inhibition reaches its midpoint.

The first series deals with inducible nitric oxide synthase (iNOS). In words: iNOS suppression / NO assay in LPS-stimulated macrophages or RAW264.7 cells (Griess reaction). In kind it is cell-based, mouse. The following applies: Mus musculus, RAW264.7, 24 h, read-out: iNOS (300 nM). As to the method:
Macrophages or RAW264.7 like-cells were treated with various concentrations of rexinoids and stimulated with lipopolysaccaride (LPS) to activate inducible nitric oxide synthase (iNOS) to produce nitric oxide. This in vitro iNOS assay was rapid, reproducible, quantitative and predictive. Nitric oxide is implicated in the apoptosis of cancer cells via regulation of RXRs. There is a tight correlation between the % reduction of iNOS and efficacy in preclinical lung cancer models. Lower numbers indicate higher efficacy.
RAW264.7 cells were incubated with 300 nM rexinoids and stimulated with 1-2 ng/ml lipopolysaccaride (LPS) for 24 hours to activate inducible nitric oxide synthase (iNOS) to produce nitric oxide. Nitric oxide released into the media was measured by the Griess reaction.
Also, for Table 6, the iNOS suppression is the percent of the LPS-stimulated control where the compounds were measured at 100 nM or 300 nM.
Macrophages or RAW264.7 cells were treated with various concentrations of rexinoids listed in Table 7 and stimulated with lipopolysaccaride (LPS) to activate inducible nitric oxide synthase (iNOS) to produce nitric oxide. Nitric oxide (NO) is implicated in the apoptosis of cancer cells via regulation of RXRs. There is a tight correlation between the % reduction of iNOS and efficacy in preclinical lung cancer models. The in vitro iNOS assay is rapid, reproducible, quantitative and predictive, as NO production is measured in culture medium using the Griess reaction. Values are either presented as % inhibition or IC50 values.
On the technique in general: The Griess reaction detects nitrite, a stable product of nitric oxide.
With `C=C(c1ccc(C(=O)O)cc1)c1cc(C(C)C)c(OC(C)C)cc1C` [Compound 1, 4-{1-[2-methyl-5-(propan-2-yl)-4-(propan-2-yloxy)phenyl]ethenyl}benzoic Acid], the activity at 0.3 µM amounted to 41%.
As for `C=C(c1ccc(C(=O)O)cc1)c1ccc(OCC(C)C)c(C(C)C)c1` [Compound 5, 4-{1-[3-iso-propyl-4-(2-methylpropoxy)phenyl]ethenyl}benzoic Acid], the activity at 0.3 µM was found to be 65%.
Take `C=C(c1ccc(C(=O)O)cc1)c1cc(C(C)(C)C)ccc1OCC` [Compound 4, 4-[1-(5-tert-butyl-2-ethoxyphenyl)ethenyl]benzoic Acid]: the activity at 0.3 µM was determined as 65%.

Staying with this series, now noted: Mus musculus, RAW264.7, 24 h; at 300 nM; percent of the LPS-stimulated control, lower is better; Table 6; read-out: iNOS suppression.
As for `CC(C)(C)c1cc(-n2c(C(F)(F)F)nc3cc(C(=O)O)ccc32)cc(C(C)(C)C)c1` [drawing 109], the activity at 0.3 µM was 45%.
With `CCN(c1ccc(C(=O)O)cn1)c1cc(C(C)(C)C)ccc1C` [drawing 112], the activity at 0.3 µM is 60%.
On to `C=C(c1ccc(C(=O)O)cc1)c1cc2c(cc1C)CCCC2(C)C`, for which the activity at 0.3 µM is 55%.
Same read-out and setting: then `C=C(c1ccc(C(=O)O)cc1)c1cc(C(C)(C)C)ccc1OCC` [drawing 108], with 67%.

Staying with this series, now noted: Mus musculus, RAW264.7; Table 7.
The compound `CCCN(c1ncc(C(=O)O)cn1)c1cc(C(C)(C)C)cc2c1CCC2(C)C` displayed an IC50 of 300 to 600 nM.
For `Cc1ccc(N(c2ccc(C(=O)O)cn2)C(C)C)cc1C(F)(F)F`, the IC50 lay within 300 to 600 nM.
`Cc1ccc(N(CC2CC2)c2ccc(C(=O)O)cn2)cc1C(F)(F)F` displayed an IC50 of 300 to 600 nM.
Still for that read-out and setting: for `CCCCN(c1ccc(C(=O)O)cn1)c1cc(C(C)(C)C)cc2c1CCC2(C)C` the value was 100 to 200 nM; for `CC(C)CN(c1ccc(C(=O)O)cn1)c1cc(C(C)(C)C)cc2c1CCC2(C)C`, 100 to 200 nM.
The compound `CC(C)(C)c1cc(N(Cc2ccccc2)c2ccc(C(=O)O)cn2)cc(C(C)(C)C)c1` [drawing 195, 6-[benzyl(3,5-di-tert-butylphenyl)amino]pyridine-3-carboxylic Acid] showed an IC50 of 300 to 600 nM.
Turning to `Cc1cc(N(CC(C)C)c2ccc(C(=O)O)cn2)cc(C(F)(F)F)c1`, the IC50 was 300 to 600 nM.
Same read-out and setting: then `CC(C)(C)c1cc(N(CC2CC2)c2ncc(C(=O)O)cn2)c2c(c1)C(C)(C)CC2`, with 200 to 300 nM.
For the compound `CCCN(c1ccc(C)c(C(F)(F)F)c1)c1ccc(C(=O)O)cn1` [6-{[4-methyl-3-(trifluoromethyl)phenyl](propyl)amino}pyridine-3-carboxylic Acid], the IC50 is 300 to 600 nM.
Take `CCCN(c1ccc(C(=O)O)cn1)c1cc(C(C)(C)C)cc2c1CCC2(C)C`: the IC50 fell in the range of 100 to 200 nM.
Compound `CC(C)(C)c1cc(N(CC2CC2)c2ccc(C(=O)O)cn2)c2c(c1)C(C)(C)CC2` came in with an IC50 of 100 to 200 nM.
As for `CC(C)CN(c1ncc(C(=O)O)cn1)c1cc(C(C)(C)C)cc2c1CCC2(C)C`, the IC50 was in the range of 300 to 600 nM.
Compound `CC(C)N(c1ncc(C(=O)O)cn1)c1cc(C(C)(C)C)cc2c1CCC2(C)C` displayed an IC50 of 300 to 600 nM.
`Cc1ccc(N(CC(C)C)c2ccc(C(=O)O)cn2)cc1C(F)(F)F` [6-{[4-methyl-3-(trifluoromethyl)phenyl](2-methylpropyl)amino}pyridine-3-carboxylic Acid] registered an IC50 of 300 to 600 nM.
For the compound `CC(C)N(c1cc(C(F)(F)F)cc(C(F)(F)F)c1)c1ncc(C(=O)O)cn1`, the IC50 lay within 100 to 200 nM.
Consider `CC(C)N(c1ccc(C(=O)O)cn1)c1cc(C(C)(C)C)cc2c1CCC2(C)C` [6-[(6-tert-butyl-1,1-dimethyl-2,3-dihydro-1H-inden-4-yl)(propan-2-yl)amino]pyridine-3-carboxylic Acid], for which the IC50 lay within 100 to 200 nM.
The same measure, in the same setting: for `CCCCN(c1ncc(C(=O)O)cn1)c1cc(C(C)(C)C)cc2c1CCC2(C)C` the value was 300 to 600 nM.

Staying with this series, now noted: Mus musculus; 300 nM; RAW264.7, 1-2 ng/ml LPS, 24 hours; Table 3; read-out: iNOS (300 nM).
As for `C=C(c1ccc(C(=O)O)cc1)c1cc(C(C)C)c(OCC)cc1C` [Compound 2, 4-{1-[4-ethoxy-2-methyl-5-(propan-2-yl)phenyl]ethenyl}benzoic Acid], the activity at 0.3 µM is 45%.

The next series relates to SREBP. In words: SREBP induction in human liver (HepG2) cells, RT-PCR. In kind it is cell-based. The following applies: 300 nM; HepG2; Table 5. The protocol: The SREBP transcription factor is involved in triglyceride synthesis, and its activation correlates with increased triglycerides in vivo. […] Lower numbers indicate better safety. […] Lower numbers indicate better safety. Also, for Table 6, SREBP activation was measured as fold induction compared to DMSO, where a lower value indicates the compound is an improvement over a control.
Turning to `C=C(c1ncc(C(=O)O)cn1)c1cc2c(cc1C)C(C)(C)CCC2(C)C` [Pyrimidine Bexarotene, reference compound], the “Safety SREBP mRNA fold induction at 300 nM” value is 1.19 ± .1 fold.

Still in this series, the particulars now being: fold induction compared to DMSO; several values per cell; Table 6.
With `CC(C)(C)c1cc(-n2c(C(F)(F)F)nc3cc(C(=O)O)ccc32)cc(C(C)(C)C)c1` [drawing 109], the SREBP activation was 3.4 fold induction and 2.1 fold induction.
`CC(C)CN(c1cc(C(C)(C)C)cc(C(C)(C)C)c1)c1ccc(C(=O)O)cn1` [drawing 122]: the SREBP activation is 1.7 fold induction and 2.0 fold induction.
As to `CCN(c1ccc(C(=O)O)cn1)c1cc(C(C)(C)C)ccc1C` [drawing 112], the SREBP activation was 2.7 fold induction and 2.2 fold induction.
The compound `C=C(c1ccc(C(=O)O)cc1)c1cc2c(cc1C)CCCC2(C)C` yielded an SREBP activation of 2.0 fold induction.
Compound `CCCCN(c1cc(C(C)(C)C)cc(C(C)(C)C)c1)c1ccc(C(=O)O)cn1` [drawing 123] registered an SREBP activation of 5.3 fold induction.
In the case of `C=C(c1ccc(C(=O)O)cc1)c1cc(C(C)(C)C)ccc1OCC` [drawing 108], the SREBP activation stood at 2.1 fold induction.

The series is the same for the next values; noted with them: human, HepG2 cells (human liver carcinoma); 300 nM; HepG2; Table 5; read-out: Safety SREBP mRNA fold induction at 300 nM.
For `CCN(c1cc(C(C)(C)C)cc(C(C)(C)C)c1)c1ccc(C(=O)O)cn1` [drawing 65], the fold induction at 0.3 µM is 2.62 ± 0.7.
Consider `CC(C)(C)c1cc(-n2c(C(F)(F)F)nc3cc(C(=O)O)ccc32)cc(C(C)(C)C)c1` [drawing 69], for which the fold induction at 0.3 µM came out at 1.58 ± 0.2.
Turning to `CCN(c1ccc(C(=O)O)cc1)c1cc(C(C)(C)C)cc(C(C)(C)C)c1` [drawing 64], the fold induction at 0.3 µM stood at 1.37 ± 0.3.
On to `CCN(c1ccc(C(=O)O)cn1)c1cc(C(C)(C)C)ccc1C` [drawing 72], for which the fold induction at 0.3 µM amounted to 1.59 ± 0.5.
As to `CC(C)(C)c1cc(N(Cc2ccccc2)c2ccc(C(=O)O)cn2)cc(C(C)(C)C)c1` [drawing 93], the fold induction at 0.3 µM turned out to be 1.94 ± 0.04.
As to `C=C(c1ccc(C(=O)O)cc1)c1cc2c(cc1C)C(C)(C)CCC2(C)C` [drawing 61], the fold induction at 0.3 µM is 2.23 ± 0.5.
Consider `Cc1ccc(C(C)(C)C)cc1N(CC(C)C)c1ccc(C(=O)O)cn1`, for which the fold induction at 0.3 µM came out at 4.93 ± 2.7.
As to `CC(C)(C)c1cc(N(CC2CC2)c2ncc(C(=O)O)cn2)cc(C(C)(C)C)c1`, the fold induction at 0.3 µM amounted to 1.46 ± 0.2.
On the same count and under the same terms, then `CCN(c1cc(C(F)(F)F)cc(C(F)(F)F)c1)c1ccc(C(=O)O)cn1` [drawing 79], with 0.96 ± 0.5.
The same measure, in the same setting: for `CCOc1c(N(CC)c2ccc(C(=O)O)cc2)cc(C(C)(C)C)cc1C(C)(C)C` [drawing 67] the value was 1.59 ± 0.2.
On to `CCN(c1cc(C(C)(C)C)cc(C(C)(C)C)c1)c1ncc(C(=O)O)cn1` [drawing 66], for which the fold induction at 0.3 µM is 1.38 ± 0.4.
As to `CC(C)CN(c1cc(C(C)(C)C)cc(C(C)(C)C)c1)c1ccc(C(=O)O)cn1` [drawing 82], the fold induction at 0.3 µM turned out to be 1.49 ± 0.6.
Still for that read-out and setting: then `C=C(c1ccc(C(=O)O)cc1)c1cc(C(C)C)c(OC(C)C)cc1C` [drawing 74], with 1.08 ± 0.1.
For the compound `Cc1ccc(C(C)(C)C)cc1N(c1ccc(C(=O)O)cn1)C(C)C`, the fold induction at 0.3 µM was determined as 0.98 ± 0.06.
As to `CCCN(c1cc(C(C)(C)C)cc(C(C)(C)C)c1)c1ccc(C(=O)O)cn1` [drawing 77], the fold induction at 0.3 µM was 2.15 ± 0.7.
On to `CCN(c1ccc(C(=O)O)cc1)c1cc(C(C)C)c(OCC(C)C)cc1C` [drawing 80], for which the fold induction at 0.3 µM came to 1.45 ± 0.2.
As for `CCN(c1ccc(C(=O)O)cc1)c1cc(C(C)(C)C)c(OC)c(C(C)(C)C)c1` [drawing 81], the fold induction at 0.3 µM stood at 1.63 ± 0.3.
The same measure, in the same setting: for `CCCN(c1cc(C(C)(C)C)cc(C(C)(C)C)c1)c1ncc(C(=O)O)cn1` the value was 1.25 ± 0.1.
`CC(C)(C)c1cc(N(CC2CC2)c2ccc(C(=O)O)cn2)cc(C(C)(C)C)c1` [drawing 78]: the fold induction at 0.3 µM was 2.48 ± 1.8.
As for `CC(C)N(c1cc(C(C)(C)C)cc(C(C)(C)C)c1)c1ccc(C(=O)O)cn1`, the fold induction at 0.3 µM came to 1.65 ± 0.1.
Still for that read-out and setting: then `CCCN(c1ccc(C(=O)O)cn1)c1cc(C(C)(C)C)ccc1C`, with 1.8 ± 0.2; and `C=C(c1ccc(C(=O)O)cc1)c1cc(C(C)C)c(OCC(C)C)cc1C` [drawing 71], with 1.67 ± 0.2; and `CC(C)CN(c1cc(C(C)(C)C)cc(C(C)(C)C)c1)c1ncc(C(=O)O)cn1`, with 2.46 ± 0.5.
With `CC(C)N(c1cc(C(C)(C)C)cc(C(C)(C)C)c1)c1ncc(C(=O)O)cn1`, the fold induction at 0.3 µM was found to be 2.46 ± 0.8.
Consider `CCCCN(c1cc(C(C)(C)C)cc(C(C)(C)C)c1)c1ccc(C(=O)O)cn1` [drawing 83], for which the fold induction at 0.3 µM was 5.6 ± 3.6.
Regarding `CC(C)CN(c1cc(C(F)(F)F)cc(C(F)(F)F)c1)c1ccc(C(=O)O)cn1`, the fold induction at 0.3 µM amounted to 1 ± 0.03.
The same measure, in the same setting: then `Cc1cc2c(cc1C1(c3ncc(C(=O)O)cn3)CC1)C(C)(C)CCC2(C)C` [drawing 63], with 1.17 ± 0.1; and `C=C(c1ccc(C(=O)O)cc1)c1cc(C(C)(C)C)cc(C(C)(C)C)c1` [drawing 76], with 1.12 ± 0.5.

The values above are taken from patent US20220089540A1 (Board of Trustees of Michigan State University, priority 2019, published 2022).
